Laboratory results taken from US20080200564A1, “Copolymers Based on N-Vinylpyrrolidone and Branched Aliphatic Carbonxylic Acids, and Their Use as Solubilizers” (BASF Aktiengesellschaft, priority 2005, published 2008).

Assay: Preparation of solubilizates: content of solubilized active ingredient, measured photometrically
Assay type: physicochemical
Settings: pH 7
Protocol: 2 g of the copolymer were weighed into a beaker. Then, one medicament in each case was weighed into the mixture as follows in order to obtain a supersaturated solution. (If the weighed-in mass dissolved in the medium, the initial weight was increased until a sediment formed). […] Phosphate buffer pH 7.0 was then added until solubilizer and phosphate buffer were present in the weight ratio 1:9. […] There then followed a resting time of at least one hour. Following filtration of the mixture, it was measured photometrically and the content of active ingredient was determined.

| content of solubilized active ingredient, Carbamazepine [g/100 ml] | content of solubilized active ingredient, Piroxicam [g/100 ml] | Substance |
| --- | --- | --- |
| 0.21 | 0.50 | copolymers of N-vinylpyrrolidone/N-vinylcaprolactam/VEOVA 10 (weight ratio 70/20/10) [Example 4] |
| 0.17 | 0.54 | copolymers of N-vinylpyrrolidone/VEOVA 9 (weight ratio 80/20) [Example 2] |
| 0.19 | 0.48 | copolymers of N-vinylpyrrolidone/VEOVA 9 (weight ratio 90/10) [Example 3] |
